A short description of this data set: Cytotoxicity activity against human HepG2 cells assessed by CellTiter-Glo luminescent cell viability assay. The settings on record: HepG2 cells, read-out: IC50 relative. More on the design: assay stage confirmatory assay, source tissue liver. It counts as toxicity, cell-based. Background: In ATP-based viability assays light output follows the ATP content of the culture.

Structures can show the parent of a compound that is named as a salt. Active and inactive are the calls of the source. The rule behind the calls is not given here. Where only a bound is given, the exact number is not on record here.

Regarding `COc1cc2c(cc1OC(C)C)[C@H](c1ccc(Cl)cc1)N(c1ccc(N(C)C[C@H]3CC[C@H](N4CCN(C)C(=O)C4)CC3)cc1)C(=O)C2` [CGM-097], the CC50 was 6.3 µM (active).
Consider `[H]/N=C(\N/C(=N/[H])NCCCCCCNC(=N)NC(=N)Nc1ccc(Cl)cc1)Nc1ccc(Cl)cc1` [CHLORHEXIDINE], for which the CC50 is 4.6 µM (active).
With `CN(C)CCCN1c2ccccc2Sc2ccc(Cl)cc21` [CHLORPROMAZINE HYDROCHLORIDE] the figure was 5.4 µM (active); with `N#CN=C(NCCCCCCOc1ccc(Cl)cc1)Nc1ccncc1` [CHS-828], 0.1 µM (active); with `O=C(NOCC1CC1)c1ccc(F)c(F)c1Nc1ccc(I)cc1Cl` [CI-1040], 0.3 µM (active).
With `C[C@@H](NCCCc1cccc(C(F)(F)F)c1)c1cccc2ccccc12` [CINACALCET HYDROCHLORIDE] the figure was 5.1 µM (active).
With `C[C@H]1Cc2c([nH]c3cc(Cl)c(F)cc23)[C@@]2(N1)C(=O)Nc1ccc(Cl)cc12` [CIPARGAMIN] the figure was 10.8 µM (active); with `COc1cc(N)c(Cl)cc1C(=O)NC1CCN(CCCOc2ccc(F)cc2)CC1OC` (configuration not stated) [CISAPRIDE MONOHYDRATE], 38 µM (inactive).
Consider `O=C(CCCCCCNC(=O)c1cnc(N(c2ccccc2)c2ccccc2Cl)nc1)NO` [CITARINOSTAT], for which the CC50 was 3 µM (active).
Regarding `CN1CCC[C@@H]1CCO[C@](C)(c1ccccc1)c1ccc(Cl)cc1` [CLEMASTINE FUMARATE], the CC50 was 5.4 µM (active).
As to `CN(C)CCCN1c2ccccc2CCc2ccc(Cl)cc21` [CLOMIPRAMINE HYDROCHLORIDE], the CC50 was 6.5 µM (active).
The same measure for `COc1ccc(/C=C\c2cc(OC)c(OC)c(OC)c2)cc1O` [COMBRETASTATIN A4]: 1.4 µM (inactive).
Regarding `CC1(COc2ccc3c(c2)ncn3-c2ccc3cccc(N4CCC(N)CC4)c3n2)COC1` [CRENOLANIB], the CC50 is 4.4 µM (active).
The same measure for `C[C@@H](Oc1cc(-c2cnn(C3CCNCC3)c2)cnc1N)c1c(Cl)ccc(F)c1Cl` [CRIZOTINIB]: 2.8 µM (active); for `C[C@H]1COC2=C1C(=O)C(=O)c1c2ccc2c1CCCC2(C)C` [CRYPTOTANSHINONE]: 3.1 µM (active); for `C#Cc1cccc(Nc2ncnc3cc(OC)c(OCCCCCCC(=O)NO)cc23)c1` [CUDC-101]: 0.5 µM (active).
For `C[C@@H]1C[C@@H]([C@H](O)CC2CC(=O)NC(=O)C2)C(=O)[C@@H](C)C1` [CYCLOHEXIMIDE], the CC50 is 0.4 µM (active).
`CCCCCCOC(=O)NC(=N)c1ccc(NCc2nc3cc(C(=O)N(CCC(=O)OCC)c4ccccn4)ccc3n2C)cc1` [DABIGATRAN ETEXILATE MESYLATE]: the CC50 is 10.2 µM (active).
With `CC(C)(C)c1nc(-c2cccc(NS(=O)(=O)c3c(F)cccc3F)c2F)c(-c2ccnc(N)n2)s1` [DABRAFENIB] the figure was 3.1 µM (active); with `COc1cc2ncnc(Nc3ccc(F)c(Cl)c3)c2cc1NC(=O)/C=C/CN1CCCCC1` [DACOMITINIB ANHYDROUS], 6.5 µM (active); with `Cn1c(=O)n(-c2ccc(C(C)(C)C#N)cc2)c2c3cc(-c4cnc5ccccc5c4)ccc3ncc21` [DACTOLISIB TOSYLATE], 0.1 µM (active).
With `Cc1cc(C)c(Nc2ccnc(Nc3ccc(C#N)cc3)n2)c(C)c1` [DAPIVIRINE] the figure was 6.5 µM (active); with `CN(C)[C@@H](CCOc1cccc2ccccc12)c1ccccc1` [DAPOXETINE HYDROCHLORIDE], 6.3 µM (active).
With `CCN(CC)CCN(Cc1ccc(-c2ccc(C(F)(F)F)cc2)cc1)C(=O)Cn1c(SCc2ccc(F)cc2)nc(=O)c2c1CCC2` [DARAPLADIB] the figure was 1.5 µM (active); with `NC(=O)C(c1ccccc1)(c1ccccc1)[C@@H]1CCN(CCc2ccc3c(c2)CCO3)C1` [DARIFENACIN HYDROBROMIDE], 11.1 µM (active); with `COc1cccc2c1C(=O)c1c(O)c3c(c(O)c1C2=O)C[C@@](O)(C(C)=O)C[C@@H]3O[C@H]1C[C@H](N)[C@H](O)[C@H](C)O1` [DAUNORUBICIN HYDROCHLORIDE], 0.3 µM (active).
Regarding `CNC(=O)c1ccc(Nc2ncc(C(F)(F)F)c(NCc3nccnc3N(C)S(C)(=O)=O)n2)cc1` [DEFACTINIB], the CC50 was 1.4 µM (inactive).
For the compound `CC(C)C[C@H](NC(=O)[C@@H](NC(=O)c1cccc(-c2ccccc2)n1)[C@@H](C)O)B(O)O` [DELANZOMIB], the CC50 was < 0.1 µM (active).
In the case of `CN1CCC(Nc2nc(Nc3ccc(Oc4ccccc4)cc3)c3c(=O)[nH]cc(Br)c3n2)CC1` [DENFIVONTINIB], the CC50 was 0.4 µM (active).
Regarding `Cc1cc(N)c2ccccc2[n+]1CCCCCCCCCC[n+]1c(C)cc(N)c2ccccc21` [DEQUALINIUM CHLORIDE], the CC50 is 14.4 µM (inactive).
Regarding `CNCCCN1c2ccccc2CCc2ccccc21` [DESIPRAMINE HYDROCHLORIDE], the CC50 was 11.4 µM (active).
For `C[C@H]1O[C@@H](O[C@H]2[C@@H](O)C[C@H](O[C@H]3[C@@H](O)C[C@H](O[C@H]4CC[C@@]5(C)[C@H](CC[C@@H]6[C@@H]5CC[C@]5(C)[C@@H](C7=CC(=O)OC7)CC[C@]65O)C4)O[C@@H]3C)O[C@@H]2C)C[C@H](O)[C@@H]1O` [DIGITOXIN], the CC50 was 0.1 µM (active).
With `C[C@H]1O[C@@H](O[C@H]2[C@@H](O)C[C@H](O[C@H]3[C@@H](O)C[C@H](O[C@H]4CC[C@@]5(C)[C@H](CC[C@@H]6[C@@H]5C[C@@H](O)[C@]5(C)[C@@H](C7=CC(=O)OC7)CC[C@]65O)C4)O[C@@H]3C)O[C@@H]2C)C[C@H](O)[C@@H]1O` [DIGOXIN] the figure was 0.2 µM (active); with `CN1C[C@H](C(=O)N[C@]2(C)O[C@@]3(O)[C@@H]4CCCN4C(=O)[C@H](Cc4ccccc4)N3C2=O)C[C@@H]2c3cccc4[nH]cc(c34)C[C@H]21` [DIHYDROERGOTAMINE MESYLATE], 12.9 µM (active).
Consider `Cc1cccc2c3c(ccc12)C1=C(C(=O)C3=O)[C@@H](C)CO1` [DIHYDROTANSHINONE I], for which the CC50 is 1.8 µM (active).
Take `Cc1ccc(C)c(-c2cc(C(F)(F)F)nn2-c2ccc(S(N)(=O)=O)cc2)c1` [DIMETHYL CELECOXIB]: the CC50 is 18.1 µM (inactive).
Take `C[C@@H]1CC[C@@]2(OC1)O[C@H]1C[C@H]3[C@@H]4CC=C5C[C@@H](O[C@@H]6O[C@H](CO)[C@@H](O[C@@H]7O[C@@H](C)[C@H](O)[C@@H](O)[C@H]7O)[C@H](O)[C@H]6O[C@@H]6O[C@@H](C)[C@H](O)[C@@H](O)[C@H]6O)CC[C@]5(C)[C@H]4CC[C@]3(C)[C@H]1[C@@H]2C` [DIOSCIN]: the CC50 was 0.7 µM (active).
With `c1ccc2c(c1)[I+]c1ccccc1-2` [DIPHENYLENEIODONIUM CHLORIDE] the figure was 0.2 µM (active).
As to `COc1cc2c(O)c3c(c(-c4ccc5c(c4)OCO5)c2cc1OC)C(=O)OC3` [DIPHYLLIN], the CC50 was 1.4 µM (active).
The same measure for `CCN(CC)C(=S)S` [DITIOCARB SODIUM]: 6.6 µM (active).
With `COc1cc2nc(N3CCN(C(=O)C4COc5ccccc5O4)CC3)nc(N)c2cc1OC` (configuration not stated) [DOXAZOSIN MESYLATE] the figure was 13.5 µM (inactive); with `CN1CCN(Cc2ccc(Nc3ncc(Cl)c(Nc4ccccc4S(=O)(=O)N(C)C)n3)cc2)CC1` [DUBERMATINIB], 11.2 µM (active).
